In patent US8487115B2, “Hydantoin derivatives of cyano-substituted chrysanthemic acid esters and their use in pest control” (Sumitomo Chemical Company, Limited, priority 2010, dated 2013):

What follows are compounds tested on German cockroaches (assay: Knockdown test on German cockroaches by spraying an oil solution). Details: 0.00156% (w/v) oil solution, 1.5 ml sprayed from 60 cm height, ten German cockroaches (5 male, 5 female), repeated twice.
Assay type: in vivo, German cockroach (Blattella germanica)
Procedure: Each of the present invention compounds (1) and (2) (0.00156 parts) produced in the aforementioned Production Examples was dissolved in 10 parts of dichloromethane and the resulting solution was mixed with 89.99844 parts of deodorized kerosine to prepare a 0.00156% (w/v) oil solution.
Ten German cockroaches (5 of each male and female) were released in a test container (measuring 8.75 cm in diameter and 7.5 cm in height, bottom area covered with a 16 mesh wire netting) coated with butter at an inner wall, and the container was disposed on the bottom of a test chamber (bottom surface measuring 46 cm and 46 cm, 70 cm in height).
From 60 cm in height above the container, 1.5 ml of the oil solution of each of the present invention compounds (1) and (2) was sprayed using a spray gun (spray pressure: 0.4 kg/cm^2). Thirty seconds after spraying, the container was removed from the test chamber. After a given time, the number of knockdowned cockroaches was counted and a knockdown rate was determined (repeated twice). The knockdown rate was calculated by the following equation. Knockdown rate (%)=(number of knockdowned cockroaches/number of test cockroaches)×100
For comparison, a test was carried out in the same manner as described above, except that 2,5-dioxo-3-(2-propynyl)imidazolidinylmethyl=(1R)-trans-3-(2-methyl-1-propenyl)-2,2-dimethylcyclopropane carboxylate (compound described in “Pestiside Science”, 1979, 10, p. 291, hereinafter referred to as the comparative compound (1)) represented by the following formula: […]
With `C#CCN1CC(=O)N(COC(=O)[C@@H]2[C@@H](/C=C(C#N)/C=C/C)C2(C)C)C1=O` [Present invention compound (2), 2,5-dioxo-3-(2-propynyl)imidazolidinylmethyl=(1R)-trans-3-[(1Z,3E)-2-cyano-1,3-pentadienyl]-2,2-dimethylcyclopropane carboxylate] the “Knockdown rate (%) after 2 minutes” value was 100%. With `C#CCN1CC(=O)N(COC(=O)[C@@H]2[C@@H](C=C(C)C)C2(C)C)C1=O` [Comparative compound (1), 2,5-dioxo-3-(2-propynyl)imidazolidinylmethyl=(1R)-trans-3-(2-methyl-1-propenyl)-2,2-dimethylcyclopropane carboxylate] the “Knockdown rate (%) after 2 minutes” value was 45%. `C#CCN1CC(=O)N(COC(=O)[C@@H]2[C@@H](/C=C(\C)C=C)C2(C)C)C1=O` [comparative compound (2), 2,5-dioxo-3-(2-propynyl)imidazolidinylmethyl=(1R)-trans-3-[(1E)-2-methyl-1-butadienyl)-2,2-dimethylcyclopropane carboxylate] was tested, and the “Knockdown rate (%) after 2 minutes” value was 10%. For `C#CCN1CC(=O)N(COC(=O)[C@@H]2[C@@H](/C=C(\C#N)C=C)C2(C)C)C1=O` [Present invention compound (1), 2,5-dioxo-3-(2-propynyl)imidazolidinylmethyl=(1R)-trans-3-[(1Z)-2-cyano-1,3-butadienyl]-2,2-dimethylcyclopropane carboxylate], the “Knockdown rate (%) after 2 minutes” value was 95%.
